Key:
Type in all cases: in vivo
[1] = test system: barnyardgrass (Echinochloa crus-galli); experiment: Test A preemergence, directed soil spray, visual injury rating; conditions: approx. 10 d, 0 = no effect, 100 = complete control
In short: (§1)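 Rated visually against untreated controls after approx. 10 d in greenhouse, scale 0 = no effect, 100 = complete control. Seeded loam/sand blend given directed soil spray preemergence, or plants sprayed at one- to two-leaf stage, 2-10 cm tall; surfactant-containing non-phytotoxic solvent formulation.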

[2] = test system: foxtail, giant (giant foxtail, Setaria faberii); experiment: as above; conditions: approx. 10 d, 0 = no effect, 100 = complete control
In short: as §1

[3] = test system: kochia (Kochia scoparia); experiment: as above; conditions: approx. 10 d, 0 = no effect, 100 = complete control
In short: as §1

[4] = test system: pigweed (Amaranthus retroflexus); experiment: as above; conditions: approx. 10 d, 0 = no effect, 100 = complete control
In short: as §1

[5] = test system: ragweed (common ragweed, Ambrosia elation); experiment: as above; conditions: approx. 10 d, 0 = no effect, 100 = complete control
In short: as §1

[6] = test system: ryegrass, Italian (Italian ryegrass, Lolium multiflorum); experiment: as above; conditions: approx. 10 d, 0 = no effect, 100 = complete control
In short: as §1

[7] = test system: barnyardgrass (Echinochloa crus-galli); experiment: Test A postemergence application, visual injury rating; conditions: approx. 10 d, 0 = no effect, 100 = complete control
In short: as §1

[8] = test system: blackgrass (Alopecurus myosuroides); experiment: as above; conditions: approx. 10 d, 0 = no effect, 100 = complete control
In short: as §1

[9] = test system: corn (Zea mays); experiment: as above; conditions: approx. 10 d, 0 = no effect, 100 = complete control
In short: as §1

[10] = test system: foxtail, giant (giant foxtail, Setaria faberii); experiment: as above; conditions: approx. 10 d, 0 = no effect, 100 = complete control
In short: as §1

[11] = test system: galium (catchweed bedstraw, Galium aparine); experiment: as above; conditions: approx. 10 d, 0 = no effect, 100 = complete control
In short: as §1

[12] = test system: kochia (Kochia scoparia); experiment: as above; conditions: approx. 10 d, 0 = no effect, 100 = complete control
In short: as §1

[13] = test system: pigweed (Amaranthus retroflexus); experiment: as above; conditions: approx. 10 d, 0 = no effect, 100 = complete control
In short: as §1

[14] = test system: ragweed (common ragweed, Ambrosia elation); experiment: as above; conditions: approx. 10 d, 0 = no effect, 100 = complete control
In short: as §1

[15] = test system: ryegrass, Italian (Italian ryegrass, Lolium multiflorum); experiment: as above; conditions: approx. 10 d, 0 = no effect, 100 = complete control
In short: as §1

[16] = test system: wheat (Triticum aestivum); experiment: as above; conditions: approx. 10 d, 0 = no effect, 100 = complete control
In short: as §1

[17] = test system: barnyardgrass (Echinochloa crus-galli); experiment: Test B flooded paddy test, visual plant response rating; conditions: 250 g ai/ha; applied to paddy water at 2-leaf stage; rated after 13 to 15 days; scale 0 to 100, 0 is no effect, 100 is complete control
In short: (§2)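 Pots flooded to 3 cm above soil at treatment; compound applied directly into paddy water, depth held throughout. Greenhouse for 13 to 15 days, then visual rating versus untreated controls on a 0–100 scale (0 no effect, 100 complete control); dash means no result.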

[18] = test system: ducksalad (Heteranthera limosa); experiment: as above; conditions: 250 g ai/ha; applied to paddy water at 2-leaf stage; rated after 13 to 15 days; scale 0 to 100, 0 is no effect, 100 is complete control
In short: as §2

[19] = test system: rice (Oryza sativa); experiment: as above; conditions: 250 g ai/ha; applied to paddy water at 2-leaf stage; rated after 13 to 15 days; scale 0 to 100, 0 is no effect, 100 is complete control
In short: as §2

[20] = test system: sedge, umbrella (small-flower umbrella sedge, Cyperus difformis); experiment: as above; conditions: 250 g ai/ha; applied to paddy water at 2-leaf stage; rated after 13 to 15 days; scale 0 to 100, 0 is no effect, 100 is complete control
In short: as §2

SMILES	Barnyardgrass plant response rating (0 to 100 scale) ([1]; 125 g ai/ha)	Barnyardgrass plant response rating (0 to 100 scale) ([1]; 500 g ai/ha)	Foxtail, Giant plant response rating (0 to 100 scale) ([2]; 125 g ai/ha)	Foxtail, Giant plant response rating (0 to 100 scale) ([2]; 500 g ai/ha)	Kochia plant response rating (0 to 100 scale) ([3]; 125 g ai/ha)	Kochia plant response rating (0 to 100 scale) ([3]; 500 g ai/ha)	Pigweed plant response rating (0 to 100 scale) ([4]; 125 g ai/ha)	Pigweed plant response rating (0 to 100 scale) ([4]; 500 g ai/ha)	Ragweed plant response rating (0 to 100 scale) ([5]; 125 g ai/ha)	Ragweed plant response rating (0 to 100 scale) ([5]; 500 g ai/ha)	Ryegrass, Italian plant response rating (0 to 100 scale) ([6]; 125 g ai/ha)	Ryegrass, Italian plant response rating (0 to 100 scale) ([6]; 500 g ai/ha)	Barnyardgrass plant response rating (0 to 100 scale) ([7]; 125 g ai/ha)	Barnyardgrass plant response rating (0 to 100 scale) ([7]; 500 g ai/ha)	Blackgrass plant response rating (0 to 100 scale) ([8]; 125 g ai/ha)	Blackgrass plant response rating (0 to 100 scale) ([8]; 500 g ai/ha)	Corn plant response rating (0 to 100 scale) ([9]; 125 g ai/ha)	Corn plant response rating (0 to 100 scale) ([9]; 500 g ai/ha)	Foxtail, Giant plant response rating (0 to 100 scale) ([10]; 125 g ai/ha)	Foxtail, Giant plant response rating (0 to 100 scale) ([10]; 500 g ai/ha)	other results
CCc1ccc(C2Cn3cnnc3C2C(=O)Nc2cccc(F)c2F)cc1 (stereo not drawn) [Compound 11]	70	90	80	90	60	70	30	30	0	40	0	30	70	80	0	20	0	30	40	70	Galium plant response rating (0 to 100 scale) ([11]; 125 g ai/ha): 20; Galium plant response rating (0 to 100 scale) ([11]; 500 g ai/ha): 50; Kochia plant response rating (0 to 100 scale) ([12]; 125 g ai/ha): 40; Kochia plant response rating (0 to 100 scale) ([12]; 500 g ai/ha): 50; Pigweed plant response rating (0 to 100 scale) ([13]; 125 g ai/ha): 0; Pigweed plant response rating (0 to 100 scale) ([13]; 500 g ai/ha): 0; Ragweed plant response rating (0 to 100 scale) ([14]; 125 g ai/ha): 0; Ragweed plant response rating (0 to 100 scale) ([14]; 500 g ai/ha): 30; Ryegrass, Italian plant response rating (0 to 100 scale) ([15]; 125 g ai/ha): 0; Ryegrass, Italian plant response rating (0 to 100 scale) ([15]; 500 g ai/ha): 50; Wheat plant response rating (0 to 100 scale) ([16]; 125 g ai/ha): 0; Wheat plant response rating (0 to 100 scale) ([16]; 500 g ai/ha): 20; Plant response rating, Flood, Barnyardgrass [17]: 0; Plant response rating, Flood, Ducksalad [18]: 95; Plant response rating, Flood, Rice [19]: 0; Plant response rating, Flood, Sedge, Umbrella [20]: 70
O=C(Nc1cccc(F)c1F)C1c2nncn2CC1c1ccc(C(F)(F)F)cc1 (stereo not drawn) [Compound 12]	20	80	90	90	30	80	30	80	0	50	40	60	30	90	0	60	0	60	30	90	Galium plant response rating (0 to 100 scale) ([11]; 125 g ai/ha): 30; Galium plant response rating (0 to 100 scale) ([11]; 500 g ai/ha): 70; Kochia plant response rating (0 to 100 scale) ([12]; 125 g ai/ha): 20; Kochia plant response rating (0 to 100 scale) ([12]; 500 g ai/ha): 60; Pigweed plant response rating (0 to 100 scale) ([13]; 125 g ai/ha): 0; Pigweed plant response rating (0 to 100 scale) ([13]; 500 g ai/ha): 70; Ragweed plant response rating (0 to 100 scale) ([14]; 125 g ai/ha): 0; Ragweed plant response rating (0 to 100 scale) ([14]; 500 g ai/ha): 50; Ryegrass, Italian plant response rating (0 to 100 scale) ([15]; 125 g ai/ha): 0; Ryegrass, Italian plant response rating (0 to 100 scale) ([15]; 500 g ai/ha): 60; Wheat plant response rating (0 to 100 scale) ([16]; 125 g ai/ha): 0; Wheat plant response rating (0 to 100 scale) ([16]; 500 g ai/ha): 40; Plant response rating, Flood, Barnyardgrass [17]: 0; Plant response rating, Flood, Ducksalad [18]: 75; Plant response rating, Flood, Rice [19]: 0; Plant response rating, Flood, Sedge, Umbrella [20]: 0
Cc1ccc(C2Cn3cnnc3C2C(=O)Nc2ccccc2F)cc1 (stereo not drawn) [Compound 13]	60	70	70	90	70	70	0	0	0	80	0	0	50	90	20	40	0	20	60	80	Galium plant response rating (0 to 100 scale) ([11]; 125 g ai/ha): 40; Galium plant response rating (0 to 100 scale) ([11]; 500 g ai/ha): 40; Kochia plant response rating (0 to 100 scale) ([12]; 125 g ai/ha): 0; Kochia plant response rating (0 to 100 scale) ([12]; 500 g ai/ha): 30; Pigweed plant response rating (0 to 100 scale) ([13]; 125 g ai/ha): 0; Pigweed plant response rating (0 to 100 scale) ([13]; 500 g ai/ha): 0; Ragweed plant response rating (0 to 100 scale) ([14]; 125 g ai/ha): 0; Ragweed plant response rating (0 to 100 scale) ([14]; 500 g ai/ha): 30; Ryegrass, Italian plant response rating (0 to 100 scale) ([15]; 125 g ai/ha): 0; Ryegrass, Italian plant response rating (0 to 100 scale) ([15]; 500 g ai/ha): 0; Wheat plant response rating (0 to 100 scale) ([16]; 125 g ai/ha): 0; Wheat plant response rating (0 to 100 scale) ([16]; 500 g ai/ha): 0; Plant response rating, Flood, Barnyardgrass [17]: 40; Plant response rating, Flood, Ducksalad [18]: 45; Plant response rating, Flood, Rice [19]: 20; Plant response rating, Flood, Sedge, Umbrella [20]: 0
CSc1ccccc1NC(=O)C1c2nnc(C)n2CC1c1ccc(C)c(C)c1 (stereo not drawn) [Compound 14]	0	30	0	60	0	0	0	0	0	0	0	0	0	20	0	20	0	0	0	20	Galium plant response rating (0 to 100 scale) ([11]; 125 g ai/ha): 0; Galium plant response rating (0 to 100 scale) ([11]; 500 g ai/ha): 0; Kochia plant response rating (0 to 100 scale) ([12]; 125 g ai/ha): 0; Kochia plant response rating (0 to 100 scale) ([12]; 500 g ai/ha): 0; Pigweed plant response rating (0 to 100 scale) ([13]; 125 g ai/ha): 0; Pigweed plant response rating (0 to 100 scale) ([13]; 500 g ai/ha): 0; Ragweed plant response rating (0 to 100 scale) ([14]; 125 g ai/ha): 0; Ragweed plant response rating (0 to 100 scale) ([14]; 500 g ai/ha): 0; Ryegrass, Italian plant response rating (0 to 100 scale) ([15]; 125 g ai/ha): 0; Ryegrass, Italian plant response rating (0 to 100 scale) ([15]; 500 g ai/ha): 0; Wheat plant response rating (0 to 100 scale) ([16]; 125 g ai/ha): 0; Wheat plant response rating (0 to 100 scale) ([16]; 500 g ai/ha): 0; Plant response rating, Flood, Barnyardgrass [17]: 20; Plant response rating, Flood, Ducksalad [18]: 60; Plant response rating, Flood, Rice [19]: 0; Plant response rating, Flood, Sedge, Umbrella [20]: 0
